Test results from paper PMC6393351, “Linking Terpene Synthases to Sesquiterpene Metabolism in Grapevine Flowers” (Frontiers in Plant Science, 2019).
Where a chain is given by its changes, count along the chain named.

What was measured:
Assay in all cases: in vivo yeast expression, HS-SPME-GC-MS of volatiles
Format in all cases: cell-based
Conditions in all cases: endogenous FPP of engineered yeast GT051, not added; pH 6, 5 mM Mg2+, 30 °C, 16 h
VvivSHTPS27 = target: T1, VvivSHTPS27 (Vitis vinifera, UniProt A0A482AKK8)
T1 construct: full-length ORF from cDNA; expressed in yeast GT051 under GAL1 promoter
T1 sequence (A0A482AKK8 1-557): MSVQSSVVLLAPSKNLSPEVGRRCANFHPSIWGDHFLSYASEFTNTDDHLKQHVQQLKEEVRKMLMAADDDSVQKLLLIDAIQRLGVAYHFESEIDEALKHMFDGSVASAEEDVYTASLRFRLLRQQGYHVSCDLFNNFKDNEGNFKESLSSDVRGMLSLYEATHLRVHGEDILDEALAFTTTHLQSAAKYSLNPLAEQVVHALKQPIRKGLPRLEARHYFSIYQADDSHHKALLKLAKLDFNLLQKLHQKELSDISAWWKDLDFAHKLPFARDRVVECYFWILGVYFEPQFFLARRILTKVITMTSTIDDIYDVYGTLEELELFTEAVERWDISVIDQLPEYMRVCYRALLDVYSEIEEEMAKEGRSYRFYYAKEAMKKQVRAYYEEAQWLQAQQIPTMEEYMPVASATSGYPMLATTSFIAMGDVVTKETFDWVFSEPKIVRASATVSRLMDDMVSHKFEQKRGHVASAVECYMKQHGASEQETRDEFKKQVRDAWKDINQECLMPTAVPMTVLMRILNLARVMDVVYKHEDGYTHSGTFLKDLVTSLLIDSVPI

VvivSBTPS02 = target: T2, VvivSBTPS02 (Vitis vinifera, UniProt A0A482AJK8)
T2 construct: full-length ORF from cDNA; expressed in yeast GT051 under GAL1 promoter
T2 sequence (A0A482AJK8 1-555): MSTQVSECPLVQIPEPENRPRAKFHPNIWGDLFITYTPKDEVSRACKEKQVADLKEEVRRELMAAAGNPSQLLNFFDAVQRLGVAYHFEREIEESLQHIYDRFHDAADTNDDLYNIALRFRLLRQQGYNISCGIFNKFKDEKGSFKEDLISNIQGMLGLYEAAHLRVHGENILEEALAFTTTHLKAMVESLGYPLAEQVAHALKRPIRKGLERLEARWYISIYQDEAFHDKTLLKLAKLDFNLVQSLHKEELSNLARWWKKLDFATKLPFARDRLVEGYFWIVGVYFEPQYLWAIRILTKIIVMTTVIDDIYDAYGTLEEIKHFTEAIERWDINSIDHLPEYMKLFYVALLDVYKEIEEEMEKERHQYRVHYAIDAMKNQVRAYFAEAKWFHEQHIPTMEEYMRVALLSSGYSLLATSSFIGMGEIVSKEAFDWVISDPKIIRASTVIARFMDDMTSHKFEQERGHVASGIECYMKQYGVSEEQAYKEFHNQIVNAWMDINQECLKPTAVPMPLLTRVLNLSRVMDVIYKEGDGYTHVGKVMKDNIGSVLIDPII

VvivMATPS27 = target: T3, VvivMATPS27 (Vitis vinifera, UniProt E5GAF4)
T3 construct: full-length ORF from cDNA; expressed in yeast GT051 under GAL1 promoter
T3 sequence (E5GAF4 1-557): T1 sequence (A0A482AKK8 1-557) with F27Y

VvivMATPS10 = target: T4, VvivMATPS10 (Vitis vinifera, UniProt A0A482AL43)
T4 construct: full-length ORF from flower cDNA; yeast GT051 (GAL1 promoter); also transient expression in N. benthamiana (pEAQ-HT-DEST1)
T4 sequence (A0A482AL43 1-560): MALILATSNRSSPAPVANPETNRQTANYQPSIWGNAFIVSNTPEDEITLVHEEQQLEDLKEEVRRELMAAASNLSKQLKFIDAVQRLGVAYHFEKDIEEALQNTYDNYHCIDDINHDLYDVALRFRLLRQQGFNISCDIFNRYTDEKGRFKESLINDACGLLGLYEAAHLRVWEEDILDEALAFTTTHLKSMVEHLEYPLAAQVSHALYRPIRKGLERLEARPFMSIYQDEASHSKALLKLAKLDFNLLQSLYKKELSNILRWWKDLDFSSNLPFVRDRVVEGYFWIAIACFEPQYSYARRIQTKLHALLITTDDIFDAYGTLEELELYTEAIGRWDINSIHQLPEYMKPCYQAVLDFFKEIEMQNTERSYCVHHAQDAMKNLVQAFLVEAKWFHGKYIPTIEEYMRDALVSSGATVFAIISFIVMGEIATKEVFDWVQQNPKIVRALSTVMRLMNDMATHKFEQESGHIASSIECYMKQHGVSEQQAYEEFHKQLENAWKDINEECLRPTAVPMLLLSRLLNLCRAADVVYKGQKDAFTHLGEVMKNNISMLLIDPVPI

VvivMATPS28 = target: T5, VvivMATPS28 (Vitis vinifera, UniProt A0A482AJV9)
T5 construct: full-length ORF from cDNA; expressed in yeast GT051 under GAL1 promoter
T5 sequence (A0A482AJV9 1-558): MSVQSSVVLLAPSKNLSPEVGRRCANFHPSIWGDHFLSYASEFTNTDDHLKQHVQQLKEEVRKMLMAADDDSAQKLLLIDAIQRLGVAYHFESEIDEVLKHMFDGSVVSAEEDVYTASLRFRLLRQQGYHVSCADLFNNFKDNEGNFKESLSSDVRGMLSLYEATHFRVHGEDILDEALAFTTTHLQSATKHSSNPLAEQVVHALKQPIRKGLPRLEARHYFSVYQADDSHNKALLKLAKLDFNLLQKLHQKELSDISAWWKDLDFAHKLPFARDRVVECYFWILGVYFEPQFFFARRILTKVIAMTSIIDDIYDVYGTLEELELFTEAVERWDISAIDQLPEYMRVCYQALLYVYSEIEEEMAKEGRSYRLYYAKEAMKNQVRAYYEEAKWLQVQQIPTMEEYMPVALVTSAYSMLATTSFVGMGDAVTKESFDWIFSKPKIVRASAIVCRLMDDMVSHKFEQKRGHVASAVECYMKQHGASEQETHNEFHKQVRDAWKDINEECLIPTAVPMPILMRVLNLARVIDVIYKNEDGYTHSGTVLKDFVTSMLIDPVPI

VvivMATPS01 = target: T6, VvivMATPS01 (Vitis vinifera, UniProt A0A482ANT9)
T6 construct: full-length ORF from cDNA; expressed in yeast GT051 under GAL1 promoter
T6 sequence (A0A482ANT9 1-555): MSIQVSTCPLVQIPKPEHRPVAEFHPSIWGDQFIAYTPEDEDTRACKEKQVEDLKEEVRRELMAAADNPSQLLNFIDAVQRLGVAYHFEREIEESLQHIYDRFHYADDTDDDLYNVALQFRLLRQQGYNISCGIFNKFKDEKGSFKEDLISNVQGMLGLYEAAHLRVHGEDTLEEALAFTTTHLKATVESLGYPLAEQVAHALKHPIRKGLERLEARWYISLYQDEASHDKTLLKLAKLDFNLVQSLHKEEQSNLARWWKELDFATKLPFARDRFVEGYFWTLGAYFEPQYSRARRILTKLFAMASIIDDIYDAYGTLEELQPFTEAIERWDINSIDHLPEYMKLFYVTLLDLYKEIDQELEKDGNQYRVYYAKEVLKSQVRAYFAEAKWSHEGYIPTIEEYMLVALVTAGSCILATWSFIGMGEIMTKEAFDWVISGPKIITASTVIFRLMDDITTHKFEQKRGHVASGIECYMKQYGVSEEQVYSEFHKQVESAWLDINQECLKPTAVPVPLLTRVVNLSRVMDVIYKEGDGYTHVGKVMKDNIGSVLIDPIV

VvivSBTPS01 = target: T7, VvivSBTPS01 (Vitis vinifera, UniProt A0A482ALZ4)
T7 construct: full-length ORF from cDNA; expressed in yeast GT051 under GAL1 promoter
T7 sequence (A0A482ALZ4 1-555): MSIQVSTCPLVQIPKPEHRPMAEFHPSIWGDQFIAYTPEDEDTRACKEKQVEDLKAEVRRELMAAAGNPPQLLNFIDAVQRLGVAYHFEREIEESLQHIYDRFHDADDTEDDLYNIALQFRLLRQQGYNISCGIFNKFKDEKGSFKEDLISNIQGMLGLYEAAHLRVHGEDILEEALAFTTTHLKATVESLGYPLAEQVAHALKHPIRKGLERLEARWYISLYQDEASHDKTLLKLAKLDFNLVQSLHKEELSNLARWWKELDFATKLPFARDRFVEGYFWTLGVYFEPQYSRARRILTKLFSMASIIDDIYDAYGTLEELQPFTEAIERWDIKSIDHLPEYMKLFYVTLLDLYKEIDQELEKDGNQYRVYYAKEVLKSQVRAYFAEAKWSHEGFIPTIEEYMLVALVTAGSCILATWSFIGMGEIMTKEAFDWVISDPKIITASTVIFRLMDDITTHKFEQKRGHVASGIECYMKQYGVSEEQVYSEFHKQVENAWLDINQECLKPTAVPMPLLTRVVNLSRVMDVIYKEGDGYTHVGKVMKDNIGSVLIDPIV

## CC(C)=CCC/C(C)=C/CC/C(C)=C/COP(=O)(O)OP(=O)(O)O [FPP]
VvivSHTPS27
  in vivo yeast expression, HS-SPME-GC-MS of volatiles: increase the metabolic flux for the FPP terpene precursor
VvivSBTPS02
  in vivo yeast expression, HS-SPME-GC-MS of volatiles: increase the metabolic flux for the FPP terpene precursor
VvivMATPS27
  in vivo yeast expression, HS-SPME-GC-MS of volatiles: increase the metabolic flux for the FPP terpene precursor
VvivMATPS10
  in vivo yeast expression, HS-SPME-GC-MS of volatiles: increase the metabolic flux for the FPP terpene precursor
VvivMATPS28
  in vivo yeast expression, HS-SPME-GC-MS of volatiles: increase the metabolic flux for the FPP terpene precursor
VvivMATPS01
  in vivo yeast expression, HS-SPME-GC-MS of volatiles: increase the metabolic flux for the FPP terpene precursor
VvivSBTPS01
  in vivo yeast expression, HS-SPME-GC-MS of volatiles: increase the metabolic flux for the FPP terpene precursor
